Test results reported in patent publication US4745177A, “Desulfatohirudins, the preparation thereof and pharmaceutical compositions containing them” (Ciba-Geigy Corporation, priority 1983, dated 1988).

Assays:
[1] = target: T1, thrombin (Homo sapiens, UniProt P00734); test: inhibition of thrombin with chromogenic substrate Chromozym TH; type: biochemical; settings: starting material of Example 1
Protocol: The biological activity is determined from the inhibition of thrombin, whose enzymatic activity is in turn determined using the chromogenic substrate Chromozym TH (a product of Boehringer, Mannheim, West Germany, for thrombin and hirudin determination) in accordance with known directions supplied with the test preparation.

[2] = target: T1, thrombin; settings: thrombin inhibitor; cited from earlier work
[3] = test system: other proteinases of the clotting cascade; settings: completely specific for thrombin; cited from earlier work
[4] = unusually high doses given to dogs; cited from earlier work
[5] = test system: experimental thrombosis (stasis or thrombin injection), endotoxin shock, DIC; settings: cited from earlier work

**Q.** For Hirudin, which “activity (inhibition of thrombin)” value [1] is on record?
**A.** Its value is 630 IU/mg.

**Q.** And the Ki [2]?
**A.** Its Ki is about 0.06 nM.

**Q.** What about the “inhibition of other proteinases of the clotting cascade” value [3] of the same substance?
**A.** The value was “does not inhibit”.

**Q.** What about the “effect on heart rate, respiration, blood pressure, thrombocytes, fibrinogen and haemoglobin” value [4] of the same substance?
**A.** Its value is “No effect”.

**Q.** And the “efficacy in experimental thrombosis, endotoxin shock and DIC” value ([5]; rats, pigs, dogs, thrombosis induced by stasis or thrombin injection)?
**A.** The value was “proved effective”.

**Q.** What about the “direct comparison with heparin” value ([5]; whenever direct comparison tests were carried out) of the same substance?
**A.** The value was “superior to heparin”.
